Consider four substances from US5912237A, “Method of synthesis of desulfated heparin and use thereof for inhibition of elastase and cathespin” (Carolinas HealthCare System, priority 1997, dated 1999).

“And” between values parts separate entries of the source, which are not always exact repeats. Equal values may be shown once. “Also recorded” adds a separate entry of the source. A value given as a limit tells only on which side of the number the result lay.

In series [1] the test system is human leukocyte elastase (HLE). The series can be described thus: Inhibition of HLE, chromogenic substrate N-Suc-Ala-Ala-Val-NA. The settings on record: for Percent inhibition of HLE: substrate N-Suc-Ala-Ala-Val-NA. It counts as biochemical. As for the experimental part:
(§1) The inhibition of HLE by partially N-desulfated heparin of Example I was measured by incubating a constant amount of HLE (100 pmol) with increasing amounts of partially N-desulfated heparin (10-50 pmol, I:E ratio 0.1-0.5) for 30 minutes at 25° C. in 500 microliters of Hepes buffer (0.125 M, 0.125% Triton-X-100, pH 7.5) diluted to the final volume of 900 microliters. The remaining enzyme activity was measured by adding 100 microliters of 3 mM N-Suc-Ala-Ala-Val-NA (Sigma Chemicals, St. Louis, Mo., made in dimethylsulfoxide [DMSO]) and reading the absorbance of the proteolytically released chromogen 4-Nitroaniline at 405 nm. The percentage of inhibition was calculated based on enzyme activity without inhibitor.
as §1, with “2-O-desulfated” for “partially N-desulfated”, “III” for “I”, “([…])” for “(10-50 pmol, I:E ratio 0.1-0.5)”

For series [2], the system named is human leukocyte elastase (HLE)-mediated lung injury. Put plainly: HLE-mediated lung injury in hamsters, bronchoalveolar lavage. It counts as in vivo, golden Syrian hamsters. The settings on record: hamster; for PMN in bronchoalveolar lavage fluid / Protein in bronchoalveolar lavage fluid / Total Hemoglobin in bronchoalveolar lavage fluid: intratracheal 500 μg followed by HLE 100 μg, 24 hours. As for the experimental part:
The ability of desulfated heparin to prevent human leukocyte elastase (HLE)-mediated lung injury was assessed in female golden Syrian hamsters (Harlan Industries, Indianapolis, Ind.) weighing 90 to 110 g. Phenobarbital-anesthetized hamsters were injected intratracheally with 0.25 ml sterile 0.9% saline (NS), 0.25 ml NS containing HLE (100 μg), or 0.25 ml NS containing 500 μg of heparin (Sigma) or 2-O-desulfated heparin according to Example III followed by 0.25 ml NS with HLE. Animals were killed by exsanguination 24 hours after treatment. The throat was opened and lungs dissected en bloc. The trachea was cannulated with polyethylene tubing and lavaged with five sequential aliquots of 3 ml NS. Lavage fluid was centrifuged at 200 Xg for 10 minutes. The resulting cell pellet was re-suspended in 1 ml Hank's balanced salt solution (HBSS) for performing cell count and differentials. The supernatant was assayed for protein and hemoglobin, as indices of acute injury.

For series [3], the system named is blood coagulation. The note with it: Rej et al. and Jaseja et al.; cited from earlier work.
Another series has as its system cathepsin G. The series can be described thus: Inhibition of cathepsin G, substrate Suc-Ala-Ala-Pro-Phe-pNA. The note with it: for Inhibition of cathepsin G, in words: I:E ratios of greater than 0.4. It counts as biochemical. As for the experimental part: as §1, with “2-O-desulfated” for “partially N-desulfated”, “III” for “I”, “([…])” for “(10-50 pmol, I:E ratio 0.1-0.5)”
The inhibition of cathepsin G by 2-O-desulfated heparin of Example III was measured as described above, except that the substrate was 3 mM Suc-Ala-Ala-Pro-Phe-pNA (Sigma Chemical, in DMSO).

Series [4] relates to factor Xa. Put plainly: Anti-factor Xa activity, plasma treated with Russell viper venom. It counts as biochemical. The note with it: for Anti-factor Xa Activity (test time): control plasma 35 sec. As for the experimental part:
The 2-O-desulfated heparin from Example III was also studied to determine whether plasma dilutions of 0.1 mg/ml heparin or heparin, desulfated according to Example III, inhibited factor Xa, prolonging test time in an assay for Xa activity utilizing plasma treated with Russell viper venom.

In a further series the test system is rats. The note with it: rat, in vivo, 10 mg/kg.
Series [5] deals with human leukocyte elastase (HLE). Put plainly: HLE degradation of 3H-elastin. It counts as biochemical. The settings on record: substrate 3H-Elastin. The method, then: Also, bovine ligament elastin was prepared according to B. C. Starcher, Anal. Biochem. (1976) 74:441-447. The elastin was assessed for purity by amino acid analysis. Its degradation was assayed using elastin radiolabeled with ^3 H-NaBH4, following the methods described in P. J. Stone, et al., Methods Enzymol. (1982) 82:588-605. The tritiated powdered elastin was homogenized and washed in phosphate buffered saline (PBS), pH 7.4 just before use to remove unincorporated radioactivity. A constant amount of human leukocyte elastase (HLE) (67 pmol) was pre-incubated with increasing amounts of 2-O-desulfated heparin (6.7-134 pmol) at 37° C. for 30 minutes in a final volume of 1.0 ml Hepes buffer (0.125 M, 0.125% Triton-X-100, pH 7.5). An aliquot of 900 microliters of each reaction mixture was incubated with 5 mg ^3 H-elastin and 100 microliters of 0.9% saline at 37° C. Solubilized peptides were separated from the elastin suspension by filtration through medium-porosity filter paper. The rate of degradation was determined by quantifying the solubilized ^3 H peptides.

The subject of the next series is human test serum. Put plainly: Activated partial thromboplastin time in vitro. It counts as biochemical. The note with it: for Time to Clot Formation: control 35-45. As for the experimental part:
The anti-coagulant potential of the desulfated heparin from Example III was studied by determining its effect on the activated partial thromboplastin time (APPT) in vitro. The test was performed in the usual fashion used to monitor the anti-coagulant effect of heparin clinically in patients. The test used 0.1 and 1.0 mg/ml heparin or heparin, 2-O-desulfated according to Example III, added to human test serum in vitro.

Series [6] concerns human polymorphonuclear leucocyte elastase (HLE). The note with it: cited from earlier work.
For series [7], the system named is factor Xa. The series can be described thus: Anti-Xa activity, amidolytic assay with chromogenic peptide substrate. It counts as biochemical. An excerpt: (§2) Heparin modifications HM0500393 through HM0505293 were made from the same lot of porcine intestinal mucosal sodium heparin having 173.0 units/mg USP anticoagulant activity (USP method) and approximately 150 units/mg anti-Xa activity (by amidolytic assay using commercially available chromogenic peptide substrate). Preparation of modifications began with dissolution of 50 to 100 gm heparin to 5-10% concentration in deionized water, followed by addition of sodium borohydride.

Series [8] relates to blood coagulation. The series can be described thus: USP anticoagulant activity.
Text: as §2

Setting [9] is: plasma dilution 1:2 of 0.1 mg/ml.
[10] abbreviates: plasma dilution 1:10 of 0.1 mg/ml.
Setting [11] is: plasma dilution 1:100 of 0.1 mg/ml.
Setting [12] is: plasma dilution 1:1000 of 0.1 mg/ml.
Setting [13] is: Conc. 0.1 mg/ml in human test serum.
Where [14] appears, read: Conc. 1.0 mg/ml in human test serum.

For the substance 2-O-desulfated heparin [ODH], the “HLE inhibitory activity, in words” value in [1] was “significant inhibition of human leukocyte elastase”. Moreover, the “Percent inhibition of HLE” value in [1] (I:E ratio 0.1:1) amounted to 20%; in [1] (I:E ratio 0.2:1), 74%; in series [1] (I:E ratio 0.3:1), 84%; in series [1] (I:E ratio 0.4:1) it was 85%; in series [1] (I:E ratio 0.5:1), 84%; in [1] (I:E ratio 0.6:1), 100%. Also, the “Percent inhibition of HLE” value in [5] (I:E ratio 0.1:1) came out at 73%; in series [5] (I:E ratio 0.2:1), 77%; in series [5] (I:E ratio 0.4:1), 72%; in series [5] (I:E ratio 0.5:1), 85%; in series [5] (I:E ratio 1.0:1) it was 85%; in series [5] (I:E ratio 2.0:1) it was 84%. Also, the “Inhibition of elastase induced injury in vivo, in words” value in [2] is given as “potent inhibitors of elastase induced injury in vivo”. For the same substance, the “PMN in bronchoalveolar lavage fluid” value in [2] is 9.83 ×10^6 Cells. The “Protein in bronchoalveolar lavage fluid” value in [2] was 65.80 mg/mL. For the same substance, the “Total Hemoglobin in bronchoalveolar lavage fluid” value in series [2] is 1.5 mg. The “Anticoagulant activity, in words” value with blood coagulation [3] is “minimal anticoagulant activity”. Further, the “Percent inhibition of Cathepsin G” value turned out to be 14% with cathepsin G (I:E ratio 0.1:1); 54% in the series on cathepsin G (I:E ratio 0.2:1); 56% in the series on cathepsin G (I:E ratio 0.4:1); 69% in the series with cathepsin G (I:E ratio 0.8:1); 69% with cathepsin G (I:E ratio 1.0:1); 67% with cathepsin G (I:E ratio 2.0:1). Further, the “Inhibition of cathepsin G, in words” value in the series on cathepsin G is reported as “significant inhibition of cathepsin G”. Also, the “Antifactor Xa activity, in words” value with factor Xa [4] is listed as “little antifactor XA activity”. In addition, the “Anti-factor Xa Activity (test time)” value with factor Xa [4] (setting [9]) was found to be 42 s; with factor Xa [4] (setting [10]), 33 s; in the series on factor Xa [4] (setting [11]) it was 32 s; in the series on factor Xa [4] (setting [12]) it was 32 s. The Alveolar hemorrhage entry in the series with rats is “produced no alveolar hemorrhage”. In addition, in the series on human test serum, the “Ability to prolong the APTT, in words” value was “little ability to prolong the APTT”. In addition, the “Time to Clot Formation” value stood at 38 s in the series on human test serum (setting [13]) and 42 s with human test serum (setting [14]).
Take dextran [non-sulfated dextran]: the “Inhibition of elastase, in words” value in series [6] is listed as “is not”.
As to dextran sulfate, the “Inhibition of elastase, in words” value in series [6] is “potent inhibitor of elastase”.
In the case of heparin, the “HLE inhibitory activity, in words” value in series [1] is “significant inhibition of human leukocyte elastase; also recorded: significantly inhibited human leukocyte elastase (HLE) at I:E ratios of greater than 0.2”. Moreover, the “Percent inhibition of HLE” value is 72% and 51.000% in [1] (I:E ratio 0.2:1); 81% and 79% in [1] (I:E ratio 0.2:1, listed as H); 83% and 91.000% in [1] (I:E ratio 0.3:1); 88% in series [1] (I:E ratio 0.3:1, listed as H); 88% in [1] (I:E ratio 0.4:1); 87% and 90% in series [1] (I:E ratio 0.4:1, listed as H). The “Percent inhibition of HLE” value was 93% and 97.000% in series [1] (I:E ratio 0.5:1); 87% and 91% in series [1] (I:E ratio 0.5:1, listed as H); 99% in series [1] (I:E ratio 0.6:1); 98% in series [1] (I:E ratio 1:1); 98% in series [1] (I:E ratio 1.5:1); 98% and 99.000% in series [1] (I:E ratio 2:1). Moreover, the “Percent inhibition of HLE” value was 72% in series [5] (I:E ratio 0.1:1); 95% in [5] (I:E ratio 0.2:1); 92% in [5] (I:E ratio 0.4:1); 94% in [5] (I:E ratio 0.5:1); 97% in [5] (I:E ratio 1.0:1); 97% in [5] (I:E ratio 2.0:1). Further, in [2], the “Inhibition of elastase induced injury in vivo, in words” value was “potent inhibitors of elastase induced injury in vivo”. In series [2], the “PMN in bronchoalveolar lavage fluid” value was 10.83 ×10^6 Cells. Moreover, the “Protein in bronchoalveolar lavage fluid” value in series [2] was found to be 41.06 mg/mL. Besides, the “Total Hemoglobin in bronchoalveolar lavage fluid” value in [2] came out at 0.867 mg. The anti-Xa activity entry in the series on factor Xa [7] is reported as “approximately 150 units/mg”. Besides, the “Percent inhibition of Cathepsin G” value is listed as 31% with cathepsin G (I:E ratio 0.1:1); 49% with cathepsin G (I:E ratio 0.2:1); 67% in the series on cathepsin G (I:E ratio 0.4:1); 78% in the series on cathepsin G (I:E ratio 0.8:1); 76% in the series with cathepsin G (I:E ratio 1.0:1); 76% in the series with cathepsin G (I:E ratio 2.0:1). In the series on cathepsin G, the “Inhibition of cathepsin G, in words” value was “significant inhibition of cathepsin G”. For the same substance, the “Anti-factor Xa Activity (test time)” value in the series with factor Xa [4] (setting [9]) is greater than 480 s; in the series on factor Xa [4] (setting [10]), greater than 420 s; in the series with factor Xa [4] (setting [11]), 42 s; in the series on factor Xa [4] (setting [12]), 32 s. In the series with blood coagulation [8] (Table VII), the “USP Activity (anti-coagulant activity)” value came to 173.0 u/mg. Further, the USP anticoagulant activity in the series with blood coagulation [8] (listed as porcine intestinal mucosal sodium heparin) was determined as 173.0 units/mg; with blood coagulation [8] (listed as starting heparin), 170 units/mg. In addition, the “Time to Clot Formation” value in the series with human test serum (setting [13]) was 80 s; in the series with human test serum (setting [14]) it was greater than 150 s.
